{
  "source": "patent EP1935986B1",
  "about": "“Luminogenic and fluorogenic compounds and methods to detect molecules or conditions” (priority 2005, dated 2006)",
  "key": {"CYP4A11": {"molecular_target": "T1, CYP4A11 (Homo sapiens, UniProt Q02928)", "T1 construct": "purchased Discovery Labware (BD/Gentest); host or cells: insect cell expression system (membrane fractions)", "T1 sequence (Q02928 5-519)": "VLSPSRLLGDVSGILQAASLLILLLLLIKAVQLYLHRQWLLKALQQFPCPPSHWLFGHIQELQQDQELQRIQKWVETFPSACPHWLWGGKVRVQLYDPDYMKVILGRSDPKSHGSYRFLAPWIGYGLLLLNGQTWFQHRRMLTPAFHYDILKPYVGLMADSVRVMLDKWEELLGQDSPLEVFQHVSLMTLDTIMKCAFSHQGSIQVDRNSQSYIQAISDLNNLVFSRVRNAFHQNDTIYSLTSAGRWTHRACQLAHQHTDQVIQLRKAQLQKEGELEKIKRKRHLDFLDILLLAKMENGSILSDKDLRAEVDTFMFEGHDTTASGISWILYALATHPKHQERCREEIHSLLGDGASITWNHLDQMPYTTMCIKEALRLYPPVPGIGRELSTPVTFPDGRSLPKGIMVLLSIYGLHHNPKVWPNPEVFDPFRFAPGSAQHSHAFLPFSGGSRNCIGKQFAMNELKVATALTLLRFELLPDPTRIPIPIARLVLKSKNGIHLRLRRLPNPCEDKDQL", "assay": "Two-step luminescent P450 screen of luciferin derivatives", "assay_type": "biochemical", "details": "result in words", "procedure": "(§1) P450s are Supersomes™ purchased from Discovery Labware (BD/Gentest). […] HLM is human liver microsomes.\n(§2) 1X substrate concentration: 50 µM."}, "CYP4F12": {"molecular_target": "T2, CYP4F12 (Homo sapiens, UniProt Q9HCS2)", "T2 construct": "purchased Discovery Labware (BD/Gentest); host or cells: insect cell expression system (membrane fractions)", "T2 sequence (Q9HCS2 1-524)": "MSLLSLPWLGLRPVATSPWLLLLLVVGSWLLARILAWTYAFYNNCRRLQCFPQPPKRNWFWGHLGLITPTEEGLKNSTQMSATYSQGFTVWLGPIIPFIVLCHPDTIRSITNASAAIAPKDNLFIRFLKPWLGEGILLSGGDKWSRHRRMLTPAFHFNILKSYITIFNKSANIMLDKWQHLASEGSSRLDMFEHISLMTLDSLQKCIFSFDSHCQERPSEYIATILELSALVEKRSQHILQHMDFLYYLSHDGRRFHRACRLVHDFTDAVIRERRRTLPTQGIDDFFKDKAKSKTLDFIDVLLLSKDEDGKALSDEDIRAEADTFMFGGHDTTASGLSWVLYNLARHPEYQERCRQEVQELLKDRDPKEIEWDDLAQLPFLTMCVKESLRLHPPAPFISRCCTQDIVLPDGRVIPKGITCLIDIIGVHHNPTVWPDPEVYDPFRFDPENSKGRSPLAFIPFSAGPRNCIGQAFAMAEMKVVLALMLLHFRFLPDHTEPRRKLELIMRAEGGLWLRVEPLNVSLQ", "assay": "Two-step luminescent P450 screen of luciferin derivatives", "assay_type": "biochemical", "details": "result in words", "procedure": "as §1, §2"}, "[1]": {"test_system": "CYP3A subfamily, CYP3A4, CYP3A5 and CYP3A7", "assay": "Two-step luminescent P450 screen of luciferin derivatives, selectivity for the CYP3A subfamily", "assay_type": "biochemical, human", "details": "result in words", "procedure": "as §1, §2"}, "CYP3A4": {"molecular_target": "CYP3A4 (Homo sapiens, UniProt P08684)", "sequence (P08684 2-503 limits assumed)": "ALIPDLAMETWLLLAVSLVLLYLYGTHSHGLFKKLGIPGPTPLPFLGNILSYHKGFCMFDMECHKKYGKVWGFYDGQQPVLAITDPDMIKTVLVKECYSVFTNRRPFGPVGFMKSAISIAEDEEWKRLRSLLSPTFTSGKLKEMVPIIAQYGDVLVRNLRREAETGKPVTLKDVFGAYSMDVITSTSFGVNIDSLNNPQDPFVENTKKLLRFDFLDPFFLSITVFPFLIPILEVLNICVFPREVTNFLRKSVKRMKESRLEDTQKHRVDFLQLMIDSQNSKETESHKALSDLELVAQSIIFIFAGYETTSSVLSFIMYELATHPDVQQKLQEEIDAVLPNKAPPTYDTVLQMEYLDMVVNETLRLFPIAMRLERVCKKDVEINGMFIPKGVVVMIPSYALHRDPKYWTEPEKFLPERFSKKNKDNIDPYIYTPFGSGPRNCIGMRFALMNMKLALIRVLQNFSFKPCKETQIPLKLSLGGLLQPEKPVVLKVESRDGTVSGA", "assay": "Two-step luminescent P450 screen of luciferin derivatives", "details": "result in words"}, "luciferase": {"test_system": "luciferase", "assay": "No-enzyme control: activity of luciferase towards the luciferin derivative (background luminescence)", "details": "on a BMG luminometer; minus P450", "procedure": "The reactions (Table 1) were assembled by first adding the water and 1 M BisTris solutions in individual 0.5 ml microfuge tubes, then adding the other components except for the GST #3 solution. Finally, the GST #3 (Figure 12) solution was added to the reactions, the resulting solution was mixed, and the time of addition noted. […]\nThe GST #3 addition was performed last and the solutions were mixed immediately after addition of GST #3. […] After mixing, the light produced by the solution was measured using a Turner TD 20/20 luminometer.\nAfter assembly, the enzyme stock solutions were diluted 1:10 into 10 mM HEPES, pH 7.5 and the following additions were made to the reactions.\nA 5 µl sample of the luciferol DMF solution was added to each of the reactions above and a timer was started upon the addition of the first luciferol/DMF solution to reaction 1. All reactions were kept at room temperature.\nAfter incubating 5 minutes at room temperature, the light produced by these samples was measured using a Turner TD 20 luminometer.\nTo initiate the conversions, 5 µl of luciferol solution was added to reactions […], 6-9, and 11-15, and 10 µl of luciferol was added to reactions 5 and 10 and the tubes mixed after that addition. Immediately after luciferol addition to reaction 1, a timer was started and the time of luciferol addition to the other tubes noted. After mixing, reaction 11-15 were placed at 37°C.\nAfter incubating 10 minutes at room temperature, the light produced by these samples was read using a Turner TD 20 luminometer (Table 18).\nTo initiate Step 1, 45 µl of enzyme and buffer were added to each well.\nSolution A and Solution B are components of the NADPH Regeneration System (V9510, Promega Corp., Madison WI). […] Solution B contains 40 units/ml glucose-6-phosphate dehydrogenase in 5 mM citrate pH 5.5."}, "CYP1A2": {"molecular_target": "T3, CYP1A2 (Homo sapiens, UniProt P05177)", "T3 construct": "purchased Discovery Labware (BD/Gentest); host or cells: insect cell expression system (membrane fractions)", "T3 sequence (P05177 2-516 limits assumed)": "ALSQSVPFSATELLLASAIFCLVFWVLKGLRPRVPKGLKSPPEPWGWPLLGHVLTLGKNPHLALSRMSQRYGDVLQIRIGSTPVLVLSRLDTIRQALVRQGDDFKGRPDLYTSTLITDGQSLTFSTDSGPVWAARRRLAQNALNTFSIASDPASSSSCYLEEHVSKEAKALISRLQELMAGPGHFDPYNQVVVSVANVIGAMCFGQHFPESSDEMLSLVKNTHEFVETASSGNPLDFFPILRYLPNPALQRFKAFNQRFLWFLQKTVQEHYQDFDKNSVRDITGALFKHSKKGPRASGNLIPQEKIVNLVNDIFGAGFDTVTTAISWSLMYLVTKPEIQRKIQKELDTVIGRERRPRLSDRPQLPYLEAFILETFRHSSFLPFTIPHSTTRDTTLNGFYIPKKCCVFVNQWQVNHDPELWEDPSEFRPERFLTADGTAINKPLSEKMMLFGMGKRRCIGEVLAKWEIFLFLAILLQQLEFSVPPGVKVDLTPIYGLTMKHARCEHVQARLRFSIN", "assay": "Two-step luminescent P450 screen of luciferin derivatives", "assay_type": "biochemical", "details": "50 µM substrate, 1 pmole P450; result in words", "procedure": "as §1, §2"}, "CYP1A1": {"molecular_target": "T4, CYP1A1 (Homo sapiens, UniProt P04798)", "T4 sequence (P04798 1-512)": "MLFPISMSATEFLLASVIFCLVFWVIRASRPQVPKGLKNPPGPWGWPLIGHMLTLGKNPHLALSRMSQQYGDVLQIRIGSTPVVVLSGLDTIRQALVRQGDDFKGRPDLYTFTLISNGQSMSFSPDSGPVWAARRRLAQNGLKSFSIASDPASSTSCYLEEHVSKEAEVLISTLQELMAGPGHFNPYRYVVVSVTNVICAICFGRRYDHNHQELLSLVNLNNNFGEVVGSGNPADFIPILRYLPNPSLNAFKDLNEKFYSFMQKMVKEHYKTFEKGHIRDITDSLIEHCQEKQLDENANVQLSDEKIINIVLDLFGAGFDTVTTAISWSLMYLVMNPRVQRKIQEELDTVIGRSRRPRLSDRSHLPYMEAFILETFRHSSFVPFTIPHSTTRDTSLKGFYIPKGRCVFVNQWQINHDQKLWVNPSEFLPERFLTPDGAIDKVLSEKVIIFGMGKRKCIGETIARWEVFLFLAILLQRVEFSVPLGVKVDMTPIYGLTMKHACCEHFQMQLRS", "assay": "Two-step luminescent P450 screen of luciferin derivatives", "details": "50 µM substrate, 1 pmole P450, 37°C 30 minutes; result in words"}},
  "data": [
    {"molecule": "2-(7-methyoxy-quinoxalin-2-yl)-4-5-dihydro-thiazole-4-carboxylic acid [quinoxalylluciferin 6-methyl ether]", "values": [
      {"measurement": "P450 activity / selectivity with the derivative as substrate", "setting": "CYP4A11", "result": "substrate"}
    ]},
    {"molecule": "Cc1cc(C)c(COc2ccc3nc(C4=N[C@@H](C(=O)O)CS4)sc3c2)c(C)c1", "note": "[6'(2,4,6-trimethylbenzyloxy)-luciferin, Luciferin 6-(2,4,6-trimethylbenzyl) ether]", "values": [
      {"measurement": "P450 activity / cross reactivity with the derivative as substrate", "setting": "CYP4F12", "result": "did not show substantial cross reactivity"},
      {"measurement": "selectivity for three members of the CYP3A subfamily", "setting": "[1]", "result": "selective"},
      {"measurement": "P450 activity / selectivity with the derivative as substrate", "setting": "CYP3A4", "result": "substantial activity"}
    ]},
    {"molecule": "O=C(O)[C@H]1CSC(c2nc3ccc(OCc4cc(C(F)(F)F)ccc4C(F)(F)F)cc3s2)=N1", "note": "[6'(2,5-ditrifluoromethylbenzyloxy)-luciferin]", "values": [
      {"measurement": "selectivity for three members of the CYP3A subfamily", "setting": "[1]", "result": "selective"}
    ]},
    {"molecule": "O=C(O)[C@H]1CSC(c2nc3ccc(OCc4ccccc4C(F)(F)F)cc3s2)=N1", "note": "[6'(o-trifluoromethylbenzyloxy)-luciferin, Luciferin 2-trifluoromethylbenzyl ether]", "values": [
      {"measurement": "P450 activity / cross reactivity with the derivative as substrate", "setting": "CYP4F12", "result": "did not show substantial cross reactivity"},
      {"measurement": "selectivity for three members of the CYP3A subfamily", "setting": "[1]", "result": "selective"},
      {"measurement": "P450 activity / selectivity with the derivative as substrate", "setting": "CYP3A4", "result": "substantial activity"}
    ]},
    {"molecule": "O=C(O)[C@H]1CSC(c2nc3ccc(OCc4c(F)c(F)c(F)c(F)c4F)cc3s2)=N1", "note": "[6'-(2,3,4,5,6-pentafluorobenzyloxy)-luciferin]", "values": [
      {"measurement": "background luminescence", "setting": "luciferase", "result": "about 900 RLU"},
      {"measurement": "P450 activity / cross reactivity with the derivative as substrate", "setting": "CYP4F12", "result": "did not show substantial cross reactivity"},
      {"measurement": "selectivity for three members of the CYP3A subfamily", "setting": "[1]", "result": "selective"},
      {"measurement": "P450 activity / selectivity with the derivative as substrate", "setting": "CYP3A4", "result": "substantial activity"}
    ]},
    {"molecule": "O=C(O)[C@H]1CSC(c2ccc3cc(OCOCc4ccccc4)ccc3n2)=N1", "note": "[6'benzyloxymethoxy-quinolylluciferin, quinolinyl luciferin benzyloxymethyl ether]", "values": [
      {"measurement": "selectivity for three members of the CYP3A subfamily", "setting": "[1]", "result": "selective"}
    ]},
    {"molecule": "O=C(O)[C@H]1CSC(c2nc3ccc(OCc4c(F)c(F)c(F)c(CN5CCN(c6ccccc6)CC5)c4F)cc3s2)=N1", "note": "[LucPPXE4F, 6'-(2,3,4,6-tetrafluoro-5-((4-phenylpiperizin-1-yl)methyl)benzyloxy)-luciferin]", "values": [
      {"measurement": "P450 activity / cross reactivity with the derivative as substrate", "setting": "CYP4F12", "result": "did not show substantial cross reactivity"},
      {"measurement": "selectivity for three members of the CYP3A subfamily", "setting": "[1]", "result": "selective"},
      {"measurement": "P450 activity / selectivity with the derivative as substrate", "setting": "CYP3A4", "result": "substantial activity"}
    ]},
    {"molecule": "O=C(O)[C@H]1CSC(c2nc3ccc(OCc4cccc(CN5CCN(c6ccccc6)CC5)c4)cc3s2)=N1", "note": "[LucPPXE, Luciferin 3-(4-phenylpiperazin-1-yl)methylbenzyl ether]", "values": [
      {"measurement": "background luminescence", "setting": "luciferase", "result": "about 2200 RLU"},
      {"measurement": "P450 activity / cross reactivity with the derivative as substrate", "setting": "CYP4F12; listed as 6'(3-((4-phenylpipenzin-1-yl))methyl)benzyloxy) luciferin", "result": "did not cross react"},
      {"measurement": "selectivity for three members of the CYP3A subfamily", "setting": "[1]", "result": "selective"},
      {"measurement": "P450 activity / selectivity with the derivative as substrate", "setting": "CYP3A4", "result": "substantial activity"},
      {"measurement": "competition at the substrate binding sites on CYP3A4", "setting": "CYP3A4", "result": "competitive at 2 of the 3 substrate binding sites"},
      {"measurement": "sensitivity of the reaction with 3A4 to DMSO", "setting": "CYP3A4", "result": "insensitive to DMSO at commonly used concentrations"}
    ]},
    {"molecule": "COc1ccc2cc(C3=N[C@@H](C(=O)O)CS3)ccc2c1", "note": "[Naphthylluciferin 6-methyl ether, naphthyl luciferin methyl ether]", "values": [
      {"measurement": "P450 activity / selectivity with the derivative as substrate", "setting": "CYP4A11", "result": "substrate"}
    ]},
    {"molecule": "COc1ccc2nc(C3=N[C@@H](C(=O)O)CS3)ccc2c1", "note": "[Quinolylluciferin 6-methyl ether, 2-(6-methoxyquinolin-2-yl)-4,5-dihydrothiazole-4-carboxylate]", "values": [
      {"measurement": "P450 activity / selectivity with the derivative as substrate", "setting": "CYP1A2", "result": "preferred substrate"}
    ]},
    {"molecule": "COc1ccc2nc(C3=N[C@@H](C(=O)NN)CS3)sc2c1", "note": "[luciferin-6-methylether hydrazide, Hydrazide of luciferin methyl ether]", "values": [
      {"measurement": "P450 activity / selectivity with the derivative as substrate", "setting": "CYP1A2", "result": "good selectivity"}
    ]},
    {"molecule": "Bis-luciferin-methylenediether", "values": [
      {"measurement": "P450 activity / selectivity with the derivative as substrate", "setting": "CYP1A1", "result": "selective"}
    ]},
    {"molecule": "N-benzyloxycarbonyl aminoluciferin", "values": [
      {"measurement": "P450 activity / selectivity with the derivative as substrate", "setting": "CYP1A1", "result": "strong selectivity"}
    ]},
    {"molecule": "N-isobutoxycarbonyl-aminoluciferin [N-isobutoxycarbonyl aminolucifern]", "values": [
      {"measurement": "P450 activity / selectivity with the derivative as substrate", "setting": "CYP1A1", "result": "strong selectivity"}
    ]}
  ]
}
